{"source": "patent US3932382A", "about": "“Dideoxybutirosin derivative” (Sankyo Company Limited, priority 1973, dated 1976)", "key": {"E. coli 704-1": {"test_system": "E. coli 704-1", "test": "Protecting Effects in Mice (Table II)", "assay_type": "in vivo", "conditions": "2 doses subcutaneously at 0 and 4 hours post-infection", "description": "(§1) Protecting Effects of 3',4'-Dideoxybutirosin A in Mice\nED50 : mg./kg./dose (2 doses subcutaneously at 0 and […]"}, "[1]": {"test_system": "gram-positive and -negative bacteria", "test": "Antibacterial activity, general statement", "assay_type": "cell-based"}, "[2]": {"test_system": "Pseudomonas aeruginosa 1055", "test": "Minimum Inhibitory Concentration (Table I)", "assay_type": "cell-based", "conditions": "Heart-Infusion Agar, butirosin-resistant bacteria", "description": "(§2) Minimum Inhibitory Concentration of 3',4'-\n(§3) Mark *means butirosin-resistant bacteria\n(§4) Medium : Heart-Infusion Agar"}, "E. coli 620": {"test_system": "E. coli 620", "test": "Minimum Inhibitory Concentration (Table I)", "assay_type": "cell-based", "conditions": "Escherichia coli, Heart-Infusion Agar, butirosin-resistant bacteria", "description": "as §2, §3, §4"}, "E. coli 665 [3]": {"test_system": "E. coli 665", "test": "Minimum Inhibitory Concentration (Table I)", "assay_type": "cell-based", "conditions": "Escherichia coli, Heart-Infusion Agar, butirosin-resistant bacteria", "description": "as §2, §3, §4"}, "[4]": {"test_system": "butirosin-resistant bacteria", "test": "Antibacterial activity against butirosin-resistant bacteria, statement", "assay_type": "cell-based", "description": "as §2, §3, §4"}, "E. coli 665 [5]": {"test_system": "E. coli 665", "test": "Protecting Effects in Mice (Table II)", "assay_type": "in vivo", "conditions": "2 doses subcutaneously at 0 and 4 hours post-infection, butirosin-resistant strain", "description": "as §1\nED50 : mg./kg./dose (2 doses subcutaneously at 0 and\n*Butirosin-resistant strain"}, "[6]": {"test_system": "butirosin sensitive strains", "test": "Antibacterial activity against butirosin sensitive strains, statement", "assay_type": "cell-based", "description": "as §2, §4"}, "[7]": {"test_system": "P. aeruginosa clinical isolates (102 strains)", "test": "Susceptibility of Clinical Isolates (Table III)", "assay_type": "cell-based", "conditions": "of 102 strains", "description": "(§5) Susceptibility of Clinical Isolates to 3',4'-"}, "[8]": {"test_system": "E. coli clinical isolates (125 strains)", "test": "Susceptibility of Clinical Isolates (Table III)", "assay_type": "cell-based", "conditions": "of 125 strains", "description": "as §5"}, "[9]": {"conditions": "for Death incidence: mouse, in vivo", "description": "Acute Toxicities of 3',4'-Dideoxybutirosin A\nMice : ddY strain, male, 20 ± 0.2 g."}, "Salmonela enteritidis": {"test_system": "Salmonela enteritidis", "test": "Minimum Inhibitory Concentration (Table I)", "assay_type": "cell-based", "conditions": "Heart-Infusion Agar", "description": "as §2, §4"}, "Shigella flexneri 2a": {"test_system": "Shigella flexneri 2a", "test": "Minimum Inhibitory Concentration (Table I)", "assay_type": "cell-based", "conditions": "Heart-Infusion Agar", "description": "as §2, §4"}, "[10]": {"test_system": "Staphylococcus aureus 209P", "test": "Minimum Inhibitory Concentration (Table I)", "assay_type": "cell-based", "conditions": "Heart-Infusion Agar", "description": "as §2, §4"}, "[11]": {"test_system": "Pseudomonas aeruginosa Scr.", "test": "Minimum Inhibitory Concentration (Table I)", "assay_type": "cell-based", "conditions": "Heart-Infusion Agar", "description": "as §2, §4"}, "[12]": {"test_system": "Bacillus subtilis P C I-219", "test": "Minimum Inhibitory Concentration (Table I)", "assay_type": "cell-based", "conditions": "PCI219, Heart-Infusion Agar", "description": "as §2, §4"}, "Escherichia coli N I H J": {"test_system": "Escherichia coli N I H J", "test": "Minimum Inhibitory Concentration (Table I)", "assay_type": "cell-based", "conditions": "Heart-Infusion Agar", "description": "as §2, §4"}, "Klebsiella 806": {"test_system": "Klebsiella 806", "test": "Minimum Inhibitory Concentration (Table I)", "assay_type": "cell-based", "conditions": "Heart-Infusion Agar", "description": "as §2, §4"}, "Staph. aureus 56": {"test_system": "Staph. aureus 56", "test": "Minimum Inhibitory Concentration (Table I)", "assay_type": "cell-based", "conditions": "Staphylococcus aureus, Heart-Infusion Agar", "description": "as §2, §4"}, "Proteus vulgaris 025": {"test_system": "Proteus vulgaris 025", "test": "Minimum Inhibitory Concentration (Table I)", "assay_type": "cell-based", "conditions": "Heart-Infusion Agar", "description": "as §2, §4"}}, "note": "Read-outs that look alike come from different tables or passages of the source.", "data": [{"compound": "NCC[C@H](O)C(=O)N[C@@H]1C[C@H](N)[C@@H](O[C@H]2O[C@H](CN)CC[C@H]2N)[C@H](O[C@@H]2O[C@H](CO)[C@H](O)[C@H]2O)[C@H]1O", "note": "[3',4'-Dideoxybutirosin A]", "values": [{"measurement": "ED50", "setting": "E. coli 704-1; Escherichia coli, 7041, sc, read-out: ED50", "value": 2.3, "unit": "mg/kg"}, {"measurement": "antibacterial activities", "setting": "[1]", "value": "broad antibacterial activities"}, {"measurement": "MIC", "setting": "[2]", "value": 6.2, "unit": "µg/mL"}, {"measurement": "MIC", "setting": "E. coli 620", "value": 3.1, "unit": "µg/mL"}, {"measurement": "MIC", "setting": "E. coli 665 [3]", "value": 3.1, "unit": "µg/mL"}, {"measurement": "activity against butirosin-resistant bacteria", "setting": "[4]", "value": "an activity against butirosin -resistant bacteria"}, {"measurement": "activity against butirosin-resistant bacteria", "setting": "[4]; listed as 3', 4'-dideoxybutirosin A (I)", "value": "outstanding activities"}, {"measurement": "ED50", "setting": "E. coli 665 [5]; Escherichia coli, 665, sc, read-out: ED50", "value": 2.43, "unit": "mg/kg"}, {"measurement": "activities against butirosin sensitive strains", "setting": "[6]", "value": "outstanding activities"}, {"measurement": "number of strains with MIC 0.8 mcg./ml.", "setting": "[7]; MIC 0.8 mcg./ml.", "value": 1, "unit": "strains"}, {"measurement": "number of strains with MIC 1.5 mcg./ml.", "setting": "[7]; MIC 1.5 mcg./ml.", "value": 3, "unit": "strains"}, {"measurement": "number of strains with MIC 3.1 mcg./ml.", "setting": "[7]; MIC 3.1 mcg./ml.", "value": 5, "unit": "strains"}, {"measurement": "number of strains with MIC 6.2 mcg./ml.", "setting": "[7]; MIC 6.2 mcg./ml.", "value": 20, "unit": "strains"}, {"measurement": "number of strains with MIC 12.5 mcg./ml.", "setting": "[7]; MIC 12.5 mcg./ml.", "value": 41, "unit": "strains"}, {"measurement": "number of strains with MIC 25 mcg./ml.", "setting": "[7]; MIC 25 mcg./ml.", "value": 21, "unit": "strains"}, {"measurement": "number of strains with MIC 50 mcg./ml.", "setting": "[7]; MIC 50 mcg./ml.", "value": 3, "unit": "strains"}, {"measurement": "number of strains with MIC 100 mcg./ml.", "setting": "[7]; MIC 100 mcg./ml.", "value": 5, "unit": "strains"}, {"measurement": "number of strains with MIC 200 mcg./ml.", "setting": "[7]; MIC 200 mcg./ml.", "value": 2, "unit": "strains"}, {"measurement": "number of strains with MIC >200 mcg./ml.", "setting": "[7]; MIC >200 mcg./ml.", "value": 1, "unit": "strains"}, {"measurement": "number of strains with MIC 0.8 mcg./ml.", "setting": "[8]; MIC 0.8 mcg./ml.", "value": 0, "unit": "strains"}, {"measurement": "number of strains with MIC 1.5 mcg./ml.", "setting": "[8]; MIC 1.5 mcg./ml.", "value": 0, "unit": "strains"}, {"measurement": "number of strains with MIC 3.1 mcg./ml.", "setting": "[8]; MIC 3.1 mcg./ml.", "value": 0, "unit": "strains"}, {"measurement": "number of strains with MIC 6.2 mcg./ml.", "setting": "[8]; MIC 6.2 mcg./ml.", "value": 6, "unit": "strains"}, {"measurement": "number of strains with MIC 12.5 mcg./ml.", "setting": "[8]; MIC 12.5 mcg./ml.", "value": 100, "unit": "strains"}, {"measurement": "number of strains with MIC 25 mcg./ml.", "setting": "[8]; MIC 25 mcg./ml.", "value": 15, "unit": "strains"}, {"measurement": "number of strains with MIC 50 mcg./ml.", "setting": "[8]; MIC 50 mcg./ml.", "value": 2, "unit": "strains"}, {"measurement": "number of strains with MIC 100 mcg./ml.", "setting": "[8]; MIC 100 mcg./ml.", "value": 2, "unit": "strains"}, {"measurement": "number of strains with MIC 200 mcg./ml.", "setting": "[8]; MIC 200 mcg./ml.", "value": 0, "unit": "strains"}, {"measurement": "number of strains with MIC >200 mcg./ml.", "setting": "[8]; MIC >200 mcg./ml.", "value": 0, "unit": "strains"}, {"measurement": "toxicity", "setting": "[9]; as compared with the prior similar aminoglycoside antibiotics", "value": "considerably low toxicity"}, {"measurement": "Death incidence", "setting": "[9]; iv, 250 mg/kg", "value": "0/3"}, {"measurement": "Death incidence", "setting": "[9]; iv, 500 mg/kg", "value": "1/2"}, {"measurement": "Death incidence", "setting": "[9]; sc, 2000 mg/kg", "value": "0/3"}, {"measurement": "MIC", "setting": "Salmonela enteritidis", "value": 1.5, "unit": "µg/mL"}, {"measurement": "MIC", "setting": "Shigella flexneri 2a", "value": 3.1, "unit": "µg/mL"}, {"measurement": "MIC", "setting": "[10]", "value": 0.1, "unit": "µg/mL"}, {"measurement": "MIC", "setting": "[11]", "value": 3.1, "unit": "µg/mL"}, {"measurement": "MIC", "setting": "[12]", "value": 0.1, "unit": "µg/mL"}, {"measurement": "MIC", "setting": "Escherichia coli N I H J", "value": 0.4, "unit": "µg/mL"}, {"measurement": "MIC", "setting": "Klebsiella 806", "value": 0.8, "unit": "µg/mL"}, {"measurement": "MIC", "setting": "Staph. aureus 56", "value": 0.4, "unit": "µg/mL"}, {"measurement": "MIC", "setting": "Proteus vulgaris 025", "value": 0.8, "unit": "µg/mL"}]}, {"compound": "Butirosin [reference compound]", "values": [{"measurement": "ED50", "setting": "E. coli 704-1", "value": 2.47, "unit": "mg./kg./dose"}, {"measurement": "ED50", "setting": "E. coli 665 [5]", "value": 146.3, "unit": "mg./kg./dose"}]}]}
